According to patent US6977262B2, “Dihydropyrazolopyridine compounds and pharmaceutical use thereof” (Mitsubishi Pharma Corporation, priority 2001, dated 2005):
Counter-ions that a name gives are not always drawn.

Tested on: not given
Assay: not given
Settings: not given

Row | melting point | Structure (SMILES)
1 | 216 °C | N#CC1=C(C2CCNCC2)Nc2n[nH]cc2C1c1cccc2nonc12 (stereo not drawn) [Example 1002, 4-(2,1,3-Benzoxadiazol-4-yl)-5-cyano-4,7-dihydro-6-(piperidin-4-yl)-2H-pyrazolo[3,4-b]pyridine]
2 | 230 °C | CC(=O)CC1=C(C#N)C(c2cccc(C#N)c2Br)c2c[nH]nc2N1 (stereo not drawn) [Example 1063, 6-Acetylmethyl-4-(2-bromo-3-cyanophenyl)-5-cyano-4,7-dihydro-2H-pyrazolo[3,4-b]pyridine]
3 | 205 to 208 °C (dec.) | CCCC1=C(c2ccccn2)C(c2cccc(C#N)c2Br)c2c[nH]nc2N1 (stereo not drawn) [Example 1084, 4-(2-Bromo-3-cyanophenyl)-5-(pyridin-2-yl)-4,7-dihydro-6-propyl-2H-pyrazolo[3,4-b]pyridine]
4 | 210 to 215 °C (dec.) | N#CC1=C(C2CCNC2)Nc2n[nH]cc2C1c1ccccc1Cl (stereo not drawn) [Example 1086, 4-(2-Chlorophenyl)-5-cyano-4,7-dihydro-6-(pyrrolidin-3-yl)-2H-pyrazolo[3,4-b]pyridine]

Target: rabbit GSK-3β (Oryctolagus cuniculus, UniProt G1T8E2)
Assay: GSK-3β-inhibitory activity (phosphorylation of CREB phosphopeptide, [γ-32P]ATP, scintillation counting)
Format: biochemical
Settings: rabbit GSK-3β (0.5 unit), 30° C. for 20 minutes, Table 1
Description: CREB phosphopeptide ([…]), rabbit GSK-3β (0.5 unit), ATP ([…]), [γ-^32P]ATP (12.3 kBq) and a test compound were reacted in a GSK-3β buffer solution (25 μL) (20 mmol/L Tris-HCl (pH 7.5), 10 mmol/L magnesium chloride, 5 mmol/L dithiothreitol) containing 1% dimethyl sulfoxide, at 30° C. for 20 minutes. The reaction product (10 μL) was adsorbed on a P81 ion-exchange paper, and the paper was washed with phosphoric acid (100 mmol/L) and measured for cpm on a scintillation counter.
CREB Phosphopeptide is Lys-Arg-Arg-Glu-Ile-Leu-Ser-Arg-Arg-Pro-Ser(P)-Tyr-Arg.

rabbit GSK-3β, sequence (G1T8E2 1-432): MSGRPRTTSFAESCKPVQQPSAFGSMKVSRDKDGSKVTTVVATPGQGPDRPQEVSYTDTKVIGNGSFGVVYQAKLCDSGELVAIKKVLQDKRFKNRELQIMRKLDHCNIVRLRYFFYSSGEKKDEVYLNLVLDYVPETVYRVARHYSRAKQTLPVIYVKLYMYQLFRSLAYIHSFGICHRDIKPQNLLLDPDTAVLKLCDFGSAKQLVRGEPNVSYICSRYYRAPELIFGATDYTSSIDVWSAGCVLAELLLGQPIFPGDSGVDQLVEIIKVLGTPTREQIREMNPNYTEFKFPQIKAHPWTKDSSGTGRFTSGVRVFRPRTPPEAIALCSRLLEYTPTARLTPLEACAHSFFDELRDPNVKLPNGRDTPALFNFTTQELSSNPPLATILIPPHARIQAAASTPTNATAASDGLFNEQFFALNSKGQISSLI

Row | IC50 [nM] | Structure (SMILES)
5 | 10 | N#CC1=C(C2CCNCC2)Nc2n[nH]cc2C1c1cccc2nonc12 (stereo not drawn) [Example 1002, 4-(2,1,3-Benzoxadiazol-4-yl)-5-cyano-4,7-dihydro-6-(piperidin-4-yl)-2H-pyrazolo[3,4-b]pyridine]
6 | 2.5 | CN1CCC(C2=C(C#N)C(c3cccc4nonc34)c3c[nH]nc3N2)CC1 (stereo not drawn) [Example 1003, 4-(2,1,3-Benzoxadiazol-4-yl)-5-cyano-4,7-dihydro-6-(1-methylpiperidin-4-yl)-2H-pyrazolo[3,4-b]pyridine]
7 | 3.7 | N#CC1=C(C2CCCCN2)Nc2n[nH]cc2C1c1cccc2nonc12 (stereo not drawn) [Example 1008, 4-(2,1,3-Benzoxadiazol-4-yl)-5-cyano-4,7-dihydro-6-(piperidin-2-yl)-2H-pyrazolo[3,4-b]pyridine]
8 | 14 | CN1CCOC(C2=C(C#N)C(c3cccc4nonc34)c3c[nH]nc3N2)C1 (stereo not drawn) [Example 1011, 4-(2,1,3-Benzoxadiazol-4-yl)-5-cyano-4,7-dihydro-6-(4-methylmorpholin-2-yl)-2H-pyrazolo[3,4-b]pyridine]
9 | 4.1 | CN(C)C1CCC(C2=C(C#N)C(c3cccc4nonc34)c3c[nH]nc3N2)CC1 (stereo not drawn) [Example 1023, 4-(2,1,3-Benzoxadiazol-4-yl)-5-cyano-4,7-dihydro-6-(4-(N,N-dimethylamino)cyclohexyl)-2H-pyrazolo[3,4-b]pyridine]
10 | 1.8 | N#CC1=C(C2CCCCC2=O)Nc2n[nH]cc2C1c1cccc2nonc12 (stereo not drawn) [Example 1058, 4-(2,1,3-Benzoxadiazol-4-yl)-5-cyano-4,7-dihydro-6-(2-oxocyclohexan-1-yl)-2H-pyrazolo[3,4-b]pyridine]
11 | 3 | CC(=O)CC1=C(C#N)C(c2cccc(C#N)c2Br)c2c[nH]nc2N1 (stereo not drawn) [Example 1063, 6-Acetylmethyl-4-(2-bromo-3-cyanophenyl)-5-cyano-4,7-dihydro-2H-pyrazolo[3,4-b]pyridine]
12 | 0.61 | N#CC1=C([C@@H]2C[C@H]3CC[C@@H]2NC3)Nc2n[nH]cc2C1c1cccc(C#N)c1Br (stereo partly drawn) [Example 1146, 6-(exo-2-Azabicyclo[2,2,2]octan-6-yl)-4-(2-bromo-3-cyanophenyl)-5-cyano-4,7-dihydro-2H-pyrazolo[3,4-b]pyridine 2 Hydrochloride]
13 | 3.2 | CN1C[C@@H]2CC[C@H]1[C@H](C1=C(C#N)C(c3cccc(C#N)c3Br)c3c[nH]nc3N1)C2 (stereo partly drawn) [Example 1148, 4-(2-Bromo-3-cyanophenyl)-5-cyano-4,7-dihydro-6-(exo-2-methyl-2-azabicyclo[2,2,2]octan-6-yl)-2H-pyrazolo[3,4-b]pyridine]
14 | 2.2 | CNC(C)C1=C(C#N)C(c2cccc(C#N)c2Br)c2c[nH]nc2N1 (stereo not drawn) [Example 1155, 4-(2-Bromo-3-cyanophenyl)-5-cyano-4,7-dihydro-6-(1-(methylamino)ethyl)-2H-pyrazolo[3,4-b]pyridine 2 Hydrochloride]
15 | 0.65 | CCCC1=C(c2nnc(C)o2)C(c2cccc(C#N)c2Br)c2c[nH]nc2N1 (stereo not drawn) [Example 1158, 4-(2-Bromo-3-cyanophenyl)-4,7-dihydro-5-(5-methyl-1,3,4-oxadiazol-2-yl)-6-propyl-2H-pyrazolo[3,4-b]pyridine]
